Assay results as given in patent US20240024273A1, “TOPICAL ADMINISTRATION OF 2-(DIETHYLAMINO)ETHYL 2-(4-ISOBUTYLPHENYL)PROPRIONATE FOR TREATMENT OF DISEASES” (TECHFIELDS PHARMA CO., LTD., priority 2020, published 2024).

Tests used:
[1] = test system: Mild to Moderate Osteoarthritis of the Knee; experiment: Phase 2 study: use of rescue medication (paracetamol); format: in vivo, human; conditions: for Percentage of patients using rescue medication: only for knee pain
Method: Subjects taking nonsteroidal anti-inflammatory drugs (NSAID) or other analgesics may enroll in the trial, but will discontinue any analgesic therapy for the duration of the study, starting at least 4 days (or 5 half lives, whichever is longer) prior to administration of the first dose of study medication (i.e., for an analgesic washout period before Day 1). Subjects will be allowed to take rescue medication (up to six 325 mg tablets [total of 1950 mg] of acetaminophen per day; provided by the Sponsor) for residual knee or other body pain starting 4 days (or 5 half lives, whichever is longer) prior to administration of the first dose of study medication except during the 24 hours prior to Baseline (Day 1), Week 2, Week 4, Week 8, Week 12/end of study (EOS), and Follow up assessments.
Subjects will record the following information in a Daily Diary starting at Screening: the amount of knee pain in the target knee while walking during the preceding 24 hours (using a 100 mm visual analog scale [VAS]), the times and number of sprays for each administration of study medication, the times when the subject washes his/her knees and/or takes a shower, the number of tablets of rescue medication taken that day and the times taken, the reason for taking the rescue medication (e.g., knee pain, headache, low back pain), any other concomitant medications taken that day, and any AEs occurring that day.
3.9.3. Exploratory Efficacy Endpoints: • 1. Subject's global assessment of disease status of the target knee at 2, 4, 8, and 12 weeks of treatment; • 2. Investigator's global assessment of disease status of the target knee at 2, 4, 8, and 12 weeks of treatment; • 3. Subject's global assessment of response to therapy of the target knee at 2, 4, 8, and 12 weeks of treatment; • 4. Investigator's global assessment of response to therapy of the target knee at 2, 4, 8, and 12 weeks of treatment; • 5. Change from Baseline over time in VAS pain scores for the target knee from Daily Diary data; • 6. Amount of rescue medication (acetaminophen) consumed per day for target knee pain.
Zeidler thought that paracetamol as rescue medication in nearly all OA trials may be a missing link to explain at least partially the large placebo response in OA trials. (Henning Zeidler, Paracetamol and the Placebo Effect in Osteoarthritis Trials: A Missing Link? Pain Research and Treatment, Volume 2011, 1-6.) From published data, the difference of the used amount of paracetamol is very small between the placebo and active drug cohorts. […] (T. J. Schnitzer, A. Kivitz, H. Frayssinet, and B. Duquesroix, “Efficacy and safety of naproxcinod in the treatment of patients with osteoarthritis of the knee: a 13-week prospective, randomized, multicenter study.” Osteoarthritis and Cartilage, vol. 18, no. 5, pp. 629-639, 2010.) In this trial, NSAIDs or any analgesic therapy was discontinued for the duration of the study, starting at least 14 days (or 5 half lives, whichever is longer) prior to administration of the first dose of study medication (ie, for an analgesic washout period before Day 1). Subjects were allowed to take rescue medication (up to six 325 mg tablets [total of 1950 mg] of acetaminophen per day; provided by the Sponsor) for residual knee or other body pain starting at least 4 days (or 5 half lives, whichever is longer) prior to administration of the first dose of study medication except during the 24 hours prior to Baseline (Day 1), Week 2, Week 4, Week 8, Week 12/end of study (EOS), and Follow-up assessments.

Acetic Acid Induced Pain = experiment: Acetic acid induced pain (writhing); format: in vivo, ICR mice
[2] = 8.75 mg/knee (BID), Day −2 to day −5 (baseline)
[3] = 17.5 mg/knee (BID), Day −2 to day −5 (baseline)
[4] = 35 mg/knee (BID), Day −2 to day −5 (baseline)
[5] = for all pain and other conditions, 8.75 mg/knee (BID), Week 2
[6] = for all pain and other conditions, 8.75 mg/knee (BID), Week 4
[7] = for all pain and other conditions, 8.75 mg/knee (BID), Week 8
[8] = for all pain and other conditions, 8.75 mg/knee (BID), Week 12
[9] = for all pain and other conditions, 17.5 mg/knee (BID), Week 2
[10] = for all pain and other conditions, 17.5 mg/knee (BID), Week 4
[11] = for all pain and other conditions, 17.5 mg/knee (BID), Week 8
[12] = for all pain and other conditions, 17.5 mg/knee (BID), Week 12
[13] = for all pain and other conditions, 35 mg/knee (BID), Week 2
[14] = for all pain and other conditions, 35 mg/knee (BID), Week 4
[15] = for all pain and other conditions, 35 mg/knee (BID), Week 8
[16] = for all pain and other conditions, 35 mg/knee (BID), Week 12

CCN(CC)CCOC(=O)C(C)c1ccc(CC(C)C)cc1 (centres unmarked) [2-(diethylamino)ethyl 2-(4-isobutylphenyl)propionate]
patients using rescue medication at the end of the study ([1]; 8.75 mg/knee): 17.3%
Rescue medication (paracetamol) only for knee pain, daily amount [1, 2]: 349 mg/day/patient
Rescue medication (paracetamol) only for knee pain, daily amount ([1]; 8.75 mg/knee (BID), Week 2): 216 mg/day/patient
Rescue medication (paracetamol), % of decrease from baseline ([1]; 8.75 mg/knee (BID), Week 2): 38.1%
Rescue medication (paracetamol) only for knee pain, daily amount ([1]; 8.75 mg/knee (BID), Week 4): 167 mg/day/patient
Rescue medication (paracetamol), % of decrease from baseline ([1]; 8.75 mg/knee (BID), Week 4): 52.1%
Rescue medication (paracetamol) only for knee pain, daily amount ([1]; 8.75 mg/knee (BID), Week 8): 166 mg/day/patient
Rescue medication (paracetamol), % of decrease from baseline ([1]; 8.75 mg/knee (BID), Week 8): 52.4%
Rescue medication (paracetamol) only for knee pain, daily amount ([1]; 8.75 mg/knee (BID), Week 12): 159 mg/day/patient
Rescue medication (paracetamol), % of decrease from baseline ([1]; 8.75 mg/knee (BID), Week 12): 54.4%
patients using rescue medication at the end of the study ([1]; 17.5 mg/knee): 6.5%
Rescue medication (paracetamol) only for knee pain, daily amount [1, 3]: 243 mg/day/patient
Rescue medication (paracetamol) only for knee pain, daily amount ([1]; 17.5 mg/knee (BID), Week 2): 86 mg/day/patient
Rescue medication (paracetamol), % of decrease from baseline ([1]; 17.5 mg/knee (BID), Week 2): 64.6%
Rescue medication (paracetamol) only for knee pain, daily amount ([1]; 17.5 mg/knee (BID), Week 4): 67 mg/day/patient
Rescue medication (paracetamol), % of decrease from baseline ([1]; 17.5 mg/knee (BID), Week 4): 72.4%
Rescue medication (paracetamol) only for knee pain, daily amount ([1]; 17.5 mg/knee (BID), Week 8): 54 mg/day/patient
Rescue medication (paracetamol), % of decrease from baseline ([1]; 17.5 mg/knee (BID), Week 8): 77.8%
Rescue medication (paracetamol) only for knee pain, daily amount ([1]; 17.5 mg/knee (BID), Week 12): 56 mg/day/patient
Rescue medication (paracetamol), % of decrease from baseline ([1]; 17.5 mg/knee (BID), Week 12): 77.0%
use of rescue medication for all pain and other conditions ([1]; 17.5 mg/knee and 35 mg/knee groups, week 12): less than 100 mg/day/patient
patients using rescue medication at the end of the study ([1]; 35 mg/knee): 5.8%
Rescue medication (paracetamol) only for knee pain, daily amount [1, 4]: 291 mg/day/patient
Rescue medication (paracetamol) only for knee pain, daily amount ([1]; 35 mg/knee (BID), Week 2): 98 mg/day/patient
Rescue medication (paracetamol), % of decrease from baseline ([1]; 35 mg/knee (BID), Week 2): 66.3%
Rescue medication (paracetamol) only for knee pain, daily amount ([1]; 35 mg/knee (BID), Week 4): 88 mg/day/patient
Rescue medication (paracetamol), % of decrease from baseline ([1]; 35 mg/knee (BID), Week 4): 69.8%
Rescue medication (paracetamol) only for knee pain, daily amount ([1]; 35 mg/knee (BID), Week 8): 54 mg/day/patient
Rescue medication (paracetamol), % of decrease from baseline ([1]; 35 mg/knee (BID), Week 8): 81.4%
Rescue medication (paracetamol) only for knee pain, daily amount ([1]; 35 mg/knee (BID), Week 12): 44 mg/day/patient
Rescue medication (paracetamol), % of decrease from baseline ([1]; 35 mg/knee (BID), Week 12): 84.9%
Daily amount of rescue medication (paracetamol) ([1]; for all pain and other conditions, 8.75 mg/knee (BID), Day −2 to day −5 (baseline)): 364 mg/day/patient
Daily amount of rescue medication (paracetamol) [1, 5]: 263 mg/day/patient
Rescue medication (paracetamol), % of decrease from baseline [1, 5]: 27.7%
Daily amount of rescue medication (paracetamol) [1, 6]: 208 mg/day/patient
Rescue medication (paracetamol), % of decrease from baseline [1, 6]: 42.9%
Daily amount of rescue medication (paracetamol) [1, 7]: 210 mg/day/patient
Rescue medication (paracetamol), % of decrease from baseline [1, 7]: 42.3%
Daily amount of rescue medication (paracetamol) [1, 8]: 209 mg/day/patient
Rescue medication (paracetamol), % of decrease from baseline [1, 8]: 42.6%
Daily amount of rescue medication (paracetamol) ([1]; for all pain and other conditions, 17.5 mg/knee (BID), Day −2 to day −5 (baseline)): 278 mg/day/patient
Daily amount of rescue medication (paracetamol) [1, 9]: 136 mg/day/patient
Rescue medication (paracetamol), % of decrease from baseline [1, 9]: 51.1%
Daily amount of rescue medication (paracetamol) [1, 10]: 115 mg/day/patient
Rescue medication (paracetamol), % of decrease from baseline [1, 10]: 58.6%
Daily amount of rescue medication (paracetamol) [1, 11]: 87 mg/day/patient
Rescue medication (paracetamol), % of decrease from baseline [1, 11]: 68.7%
Daily amount of rescue medication (paracetamol) [1, 12]: 69 mg/day/patient
Rescue medication (paracetamol), % of decrease from baseline [1, 12]: 75.2%
Daily amount of rescue medication (paracetamol) ([1]; for all pain and other conditions, 35 mg/knee (BID), Day −2 to day −5 (baseline)): 310 mg/day/patient
Daily amount of rescue medication (paracetamol) [1, 13]: 171 mg/day/patient
Rescue medication (paracetamol), % of decrease from baseline [1, 13]: 44.8%
Daily amount of rescue medication (paracetamol) [1, 14]: 158 mg/day/patient
Rescue medication (paracetamol), % of decrease from baseline [1, 14]: 49.0%
Daily amount of rescue medication (paracetamol) [1, 15]: 111 mg/day/patient
Rescue medication (paracetamol), % of decrease from baseline [1, 15]: 64.2%
Daily amount of rescue medication (paracetamol) [1, 16]: 94 mg/day/patient
Rescue medication (paracetamol), % of decrease from baseline [1, 16]: 69.7%
Daily amount of rescue medication (paracetamol) ([1]; for other conditions excluding knee pain, 8.75 mg/knee (BID), Day −2 to day −5 (baseline)): 15 mg/day/patient
Daily amount of rescue medication (paracetamol) ([1]; for other conditions excluding knee pain, 8.75 mg/knee (BID), Week 2): 47 mg/day/patient
Daily amount of rescue medication (paracetamol) ([1]; for other conditions excluding knee pain, 8.75 mg/knee (BID), Week 4): 41 mg/day/patient
Daily amount of rescue medication (paracetamol) ([1]; for other conditions excluding knee pain, 8.75 mg/knee (BID), Week 8): 44 mg/day/patient
Daily amount of rescue medication (paracetamol) ([1]; for other conditions excluding knee pain, 8.75 mg/knee (BID), Week 12): 50 mg/day/patient
Daily amount of rescue medication (paracetamol) ([1]; for other conditions excluding knee pain, 17.5 mg/knee (BID), Day −2 to day −5 (baseline)): 35 mg/day/patient
Daily amount of rescue medication (paracetamol) ([1]; for other conditions excluding knee pain, 17.5 mg/knee (BID), Week 2): 50 mg/day/patient
Daily amount of rescue medication (paracetamol) ([1]; for other conditions excluding knee pain, 17.5 mg/knee (BID), Week 4): 48 mg/day/patient
Daily amount of rescue medication (paracetamol) ([1]; for other conditions excluding knee pain, 17.5 mg/knee (BID), Week 8): 33 mg/day/patient
Daily amount of rescue medication (paracetamol) ([1]; for other conditions excluding knee pain, 17.5 mg/knee (BID), Week 12): 13 mg/day/patient
Daily amount of rescue medication (paracetamol) ([1]; for other conditions excluding knee pain, 35 mg/knee (BID), Day −2 to day −5 (baseline)): 19 mg/day/patient
Daily amount of rescue medication (paracetamol) ([1]; for other conditions excluding knee pain, 35 mg/knee (BID), Week 2): 73 mg/day/patient
Daily amount of rescue medication (paracetamol) ([1]; for other conditions excluding knee pain, 35 mg/knee (BID), Week 4): 70 mg/day/patient
Daily amount of rescue medication (paracetamol) ([1]; for other conditions excluding knee pain, 35 mg/knee (BID), Week 8): 57 mg/day/patient
Daily amount of rescue medication (paracetamol) ([1]; for other conditions excluding knee pain, 35 mg/knee (BID), Week 12): 50 mg/day/patient
maximum decrease of rescue medication for all pain, pre-treatment to week 12 ([1]; in vivo): up to 75%
Percentage of patients using rescue medication [1, 2]: 35.3%
Percentage of patients using rescue medication ([1]; 8.75 mg/knee (BID), Week 2): 23.6%
Percentage of patients using rescue medication ([1]; 8.75 mg/knee (BID), Week 4): 18.4%
Percentage of patients using rescue medication ([1]; 8.75 mg/knee (BID), Week 8): 17.1%
Percentage of patients using rescue medication ([1]; 8.75 mg/knee (BID), Week 12): 16.3%
Percentage of patients using rescue medication [1, 3]: 24.0%
Percentage of patients using rescue medication ([1]; 17.5 mg/knee (BID), Week 2): 11.3%
Percentage of patients using rescue medication ([1]; 17.5 mg/knee (BID), Week 4): 8.4%
Percentage of patients using rescue medication ([1]; 17.5 mg/knee (BID), Week 8): 7.2%
Percentage of patients using rescue medication ([1]; 17.5 mg/knee (BID), Week 12): 6.5%
Percentage of patients using rescue medication [1, 4]: 34.8%
Percentage of patients using rescue medication ([1]; 35 mg/knee (BID), Week 2): 12.4%
Percentage of patients using rescue medication ([1]; 35 mg/knee (BID), Week 4): 11.0%
Percentage of patients using rescue medication ([1]; 35 mg/knee (BID), Week 8): 7.6%
Percentage of patients using rescue medication ([1]; 35 mg/knee (BID), Week 12): 5.8%
maximum decrease in the use of rescue medication, paracetamol ([1]; pre-treatment to week 12): 84.9%
inhibitory effect compared with Vehicle (Acetic Acid Induced Pain; high dose): 2-(4-isobutylphenyl)propionate showed significant inhibitory effect
inhibitory effect (Acetic Acid Induced Pain; low dose): 2-(4-isobutylphenyl)propionate did not show any inhibitory effect in this
